Reference: patent publication US6239171A, “Tocotrienols and tocotrienol-like compounds and methods for their use” (Lipogenics, Inc., priority 1998, dated 2001)

Assays:
HMG-CoA reductase = molecular target: T1, HMG-CoA reductase (Sus scrofa, UniProt Q1W675); assay: Hepatic HMG-CoA reductase activity in hypercholesterolemic swine; format: in vivo; settings: control diet + 50 ppm
T1 construct: The hepatic enzymatic activity of the HMG-CoA reductase decreased approximately 30%; from tissue; host or cells: pig liver, microsomes
T1 sequence (Q1W675 1-885): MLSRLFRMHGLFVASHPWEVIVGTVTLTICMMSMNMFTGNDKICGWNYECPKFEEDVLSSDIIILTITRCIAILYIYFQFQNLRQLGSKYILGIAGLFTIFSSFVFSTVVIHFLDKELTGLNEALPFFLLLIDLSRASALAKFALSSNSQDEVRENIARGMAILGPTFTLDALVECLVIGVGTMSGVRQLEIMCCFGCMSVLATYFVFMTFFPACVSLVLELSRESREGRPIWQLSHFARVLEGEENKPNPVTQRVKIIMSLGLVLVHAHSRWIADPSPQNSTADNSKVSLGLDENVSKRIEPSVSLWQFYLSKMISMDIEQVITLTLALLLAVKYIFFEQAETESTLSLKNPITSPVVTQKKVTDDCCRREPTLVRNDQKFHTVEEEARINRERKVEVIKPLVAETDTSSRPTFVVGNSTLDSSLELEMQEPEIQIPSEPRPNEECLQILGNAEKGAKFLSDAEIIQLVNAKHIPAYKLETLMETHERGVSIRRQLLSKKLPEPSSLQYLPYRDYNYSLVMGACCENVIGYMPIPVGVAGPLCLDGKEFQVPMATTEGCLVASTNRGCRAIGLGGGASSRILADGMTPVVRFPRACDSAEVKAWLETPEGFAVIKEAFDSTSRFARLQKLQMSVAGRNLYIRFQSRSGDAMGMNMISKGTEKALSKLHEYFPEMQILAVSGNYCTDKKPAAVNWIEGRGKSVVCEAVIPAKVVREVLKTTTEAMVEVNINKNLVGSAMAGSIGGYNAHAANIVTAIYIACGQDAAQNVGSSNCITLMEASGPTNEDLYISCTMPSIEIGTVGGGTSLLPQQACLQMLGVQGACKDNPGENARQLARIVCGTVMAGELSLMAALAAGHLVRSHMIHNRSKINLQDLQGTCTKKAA
Description: (§1) All assays conducted on chicken or swine serum were done following the protocols described in A. A. Qureshi et al., "Lowering Of Serum Cholesterol In Hypercholesterolemic Humans By Tocotrienols" (Palmvitee), Am. J. Clin. Nutr., 53, pp. 1021S-26S (1991). All enzymatic assays were done following the protocols described in A. A. Qureshi et al., "Effects of Cereals and Culture Filtrate of Trichoderma viride on Lipid Metabolism of Swine", Lipids, 17, pp. 924 (1982). Plasma insulin, glucagon and TNF levels were measured using radioinnumoassay kits from Ventrex Laboratories, Inc. (Portland, Me.), ICN Biomedicals, Inc. (Costa Mesa, Calif.) and Genzyme Corp. (Cambridge, Mass.), respectively.
(§2) We next measured the effects of various tocotrienols from rice bran on HMG-CoA reductase and cholesterol 7α-hydroxylase in hypercholesterolemic swine. Since pigs are very similar to humans in their cholesterol metabolism, they provide a useful model from which to study hypercholesterolemia and related diseases. […] The serum cholesterol concentration in these swine is typically above 300-500 mg/dl, as compared to 120-160 mg/dl in normal adult swine. As a result, the pigs develop complicated atherosclerotic plaques that closely resemble advanced atherosclerotic lesions found in humans.
(§3) Each group of three 5-month old swine was administered either a control diet or a control diet supplemented with 50 ppm of TRF or 50 ppm of an individual tocotrienol. The samples were prepared as described in Example 11. After a 12 hour fast, serum and plasma samples were taken a 0 hrs, 21 days and 42 days from the start of the feeding period. After taking serum and plasma samples from the pigs at the end of the 42 day period, all of the swine were fasted for a total of 40 hours, followed by a 48 hour refeeding period. One swine from each group was sacrificed at that time and the liver, intestine, lung, heart, loin muscle, adipose tissue and ham muscle were removed.

[1] = system: hypercholesterolemic swine; assay: Plasma thromboxane B2 and platelet factor 4 in hypercholesterolemic swine; format: in vivo; settings: control diet + 50 ppm, 42 days
Description: as §1, §3
This example was conducted to measure the serum levels of apolipoprotein (a)1, apolipoprotein B, triglycerides, glucose, insulin and glucagon and the plasma levels of thromboxane B2 and platelet factor 4 in the swine described in Example 15.

[2] = system: cholesterol 7α-hydroxylase; assay: Hepatic cholesterol 7α-hydroxylase activity in chickens fed supplemented diets; format: in vivo, chicken; settings: control diet + 50 ppm, 4 weeks
Description: This example measured the effects of the TRF and its components on the hepatic enzymatic activity of HMG-CoA reductase and cholesterol 7α-hydroxylase. […] The amount of feed consumed ranged from 11.19-11.60 g per chicken and the feeding period was 4 weeks. The birds were fasted for a period of 36 hours and refed for 48 hours prior to sacrifice (at 0800 hours).

[3] = system: cholesterol 7α-hydroxylase; assay: Hepatic cholesterol 7α-hydroxylase activity in hypercholesterolemic swine; format: in vivo; settings: control diet + 50 ppm
Description: as §1, §2, §3

chickens [4] = assay: Antibody titers to sheep red blood cells in chickens; format: in vivo, chicken; settings: control diet + 50 ppm, 4 weeks, sheep red blood cells i.p.
Description: The model for this study was 6-week old female white leghorn chickens. Each group of 12 chickens was fed an unsupplemented chicken diet or a control diet supplemented with 50 ppm of a tocotrienol or 100 ppm of a commercially available hypercholesterolemic agent (Geraniol or Lovastatin). […] The chickens were fed over a period of 4 weeks, then the blood was drawn. The antibody response was determined by injecting the chickens i.p. with 0.5 ml of a 5% suspension of sheep red blood cells (RBCs) in PBS (v/v) which were previously washed three times. […] Relative IgG levels were determined by using 2-mercaptoethanol preincubation for 30 min. The relative IgM levels were calculated by subtracting the IgG antibody levels from total antibody levels. All antibody levels are expressed as the log base 2 of the highest titer that was needed to hemagglutinate an equal volume of 0.5% RBC suspension.

chickens [5] = assay: Serum cholesterol, apolipoproteins, triglycerides and glucose in chickens fed supplemented diets; format: in vivo, chicken; settings: 4 weeks
Description: as §1, with “respectively. […]” for “respectively.”
Each group of 6 chickens (6-week old female while leghorn) was administered the chick mash diet described in Example 5, supplemented with one of three different amounts of waxes (sterols), 50 ppm of TRF (prepared as in Example 2) or 5% equivalent of the methanol insoluble fraction Louisiana rice bran oil. […] The birds were fasted for a period of 14 hours prior to sacrifice (at 0800 hours). […]

Compound: CC(C)=CCC/C(C)=C/CC/C(C)=C/CCC1(C)CCc2cc(O)ccc2O1 (centres unmarked) [P21, 3,4-dihydro-2-methyl-2-(4,8,12-trimethyltrideca-3' (E),7'(E),11'-trienyl)-2H-1-benzopyran-6-ol]
- HMG-CoA REDUCTASE (HMG-CoA reductase; 21 days): 304.23 pg/min/mg of microsomes
- HMG-CoA REDUCTASE, percentage of 0-time value (HMG-CoA reductase; 21 days): 89.38%
- HMG-CoA REDUCTASE (HMG-CoA reductase; 42 days): 275.75 pg/min/mg of microsomes
- HMG-CoA REDUCTASE, Percentage of Control Activity (HMG-CoA reductase; 42 days): 73.59%
- HMG-CoA REDUCTASE, percentage of 0-time value (HMG-CoA reductase; 42 days): 81.02%
- Platelet Factor 4, percentage of control [1]: 82.59%
- Thromboxane B2 [1]: 60.48 pg/100 ml
- Thromboxane B2, percentage of control [1]: 87.66%
- Cholesterol 7α-Hydroxylase, percentage of control [2]: 112.43%
- Cholesterol 7α-hydroxylase [2]: 11.49 nmol/min/mg
- CHOLESTEROL 7α-HYDROXYLASE, percentage of baseline value ([3]; 21 days): 99.34%
- Cholesterol 7α-hydroxylase ([3]; 21 days): 4.50 pg/min/mg of microsomes
- CHOLESTEROL 7α-HYDROXYLASE, Percentage of Control Activity ([3]; 42 days): 98.38%
- CHOLESTEROL 7α-HYDROXYLASE, percentage of baseline value ([3]; 42 days): 102.21%
- Cholesterol 7α-hydroxylase ([3]; 42 days): 4.63 pg/min/mg of microsomes
- IgG antibody titers in serum (chickens [4]): 1.50 ± 1.18 Log 2
- IgM antibody titers in serum (chickens [4]): 7.17 Log 2
- Total Ab titers in serum (chickens [4]): 8.67 ± 1.92 Log 2
- increase in the HDL-/LDL-cholesterol ratio (chickens [5]; 50 ppm in diet): > 100%
- rank as cholesterol inhibitor among compounds tested (in words) (chickens [5]; 50 ppm in diet): most potent cholesterol inhibitors
- APO A1, percentage of control (chickens [5]; control diet + 50 ppm): 98.79%
- APO A1 in serum (chickens [5]; control diet + 50 ppm): 138.4 mg/100 ml
- APO B in serum (chickens [5]; control diet + 50 ppm): 25.40 mg/100 ml
- APO B, percentage of control (chickens [5]; control diet + 50 ppm): 76.74%
- DL-Cholesterol/Total Cholesterol (chickens [5]; control diet + 50 ppm): 0.74
- DL-Cholesterol/Total Cholesterol, percentage of control (chickens [5]; control diet + 50 ppm): 126.50%
- Glucose in serum (chickens [5]; control diet + 50 ppm): 198.80 mg/100 ml
- Glucose, percentage of control (chickens [5]; control diet + 50 ppm): 88.63%
- HDL-Cholesterol in serum (chickens [5]; control diet + 50 ppm): 68.88 ± 1.52 mg/dL
- HDL-Cholesterol, percentage of control (chickens [5]; control diet + 50 ppm): 82.33%
- HDL-Cholesterol/LDL-Cholesterol (chickens [5]; control diet + 50 ppm): 3.11
- HDL-Cholesterol/LDL-Cholesterol, percentage of control (chickens [5]; control diet + 50 ppm): 204.60%
- LDL-Cholesterol in serum (chickens [5]; control diet + 50 ppm): 22.16 ± 0.57 mg/dL
- LDL-Cholesterol, percentage of control (chickens [5]; control diet + 50 ppm): 40.25%
- Total Cholesterol in serum (chickens [5]; control diet + 50 ppm): 92.91 ± 1.27 mg/dL
- Total Cholesterol, percentage of control (chickens [5]; control diet + 50 ppm): 65.08%
- Triglycerides in serum (chickens [5]; control diet + 50 ppm): 56.22 mg/100 ml
- Triglycerides, percentage of control (chickens [5]; control diet + 50 ppm): 75.94%
